Values joined by “and” are separate entries in the source; they are usually repeats but may differ in a detail not shown here. Equal entries are not always repeated. Where two headings read alike, the source gives them in different places.
Key:
[1] = tested on: phagocytosis by peritoneal macrophages of mice; format: cell-based; details: for % phagocytosis with respect to controls (= 100%): 80 min
Procedure: The macrophages the proliferation of which in the animal has been previously stimulated in vivo by an intraperitoneal injection of proteose-peptone (Difco) are collected or gathered in a sterile manner by washing the peritoneal cavity. They are then suspended in a culture medium consisting of a basal Eagle medium (B-D Merieux) admixed with 20 % of serum of foetal calf (Flow Laboratories) and with 100 U/ml of penicillin and of 50 μg/ml of streptomicin. They are distributed at the rate of 5×10^6 cells per dish into Petri Falcon dishes of 35 mm in diameter wherein they will form a monocellular layer. They are cultivated at 37° C in a water-saturated atmosphere of air and of 5 % carbon dioxide CO2.
For the measurement of phagocytosis 48 hours cultures (experiments I, II, IV) or 72 hours cultures (experiments II, V) have been used. […] The volume of methanol added to each culture was equal to 10 μl except for experiment I (25 μl).

[2] = tested on: oedema produced by crystals of urate in the hind paw of the rat; format: in vivo, Sprague Dawely female rats
Procedure: The anti-gout activity has also been studied "in vivo" with the rat by investigating the inhibition of oedema induced in the hind paw through local injection of sodium urate.
8 g of uric acid (puriss Fluka A.G. Buchs S.G.) were added to 1,600 ml of boiling water and the pH of the solution was adjusted to 7.4 with 20 % of sodium hydroxyde NaOH. The solution was heated up to 95° C and allowed to cool down to the room temperature of the laboratory while being slightly stirred for 7 to 8 hours. The crystals of sodium urate were recovered through filtration on a Buchner filter and air-dried. The formation of crystals was confirmed through microscopic examination.
Sprague Dawely female rats having an average weight of 200 g were used for this investigation.
The oedema was produced through injection into the plantar arch of the left hind foot or leg of 0.1 ml of a suspension of crystals of sodium urate in a physiological salt solution (100 mg/ml). An equal volume of saline solution was injected into the right foot or leg as a control.
Colchicine and the derivative in ethanolic solution were injected through the subcutaneous way.
Three injections with the same dose were carried out 0.2 and 4 hours after the injection of crystals of urate. The volume injected ranged from 3.5 to 6 ml/kg each time. The reference rats also received three injections of a solution containing the same concentration in ethanol.
Six hours after the injection of the crystals of urate, the rats were killed through decapitation, the hind legs were amputated at the ankle and weighed.

leucocytes from rats [3] = format: in vivo, Sprague Dawley SIV 50 he-rats; details: 2 mg/kg oral
Procedure: Blood (about 0.2 ml) obtained through puncture of the retro-orbital veinous sinus was collected under sterile conditions prior to the administration of the substances and 6 hours later.
Then one proceeded with carrying out a micro-culture of the leucocytes in the presence of phytohemagglutinin.

[4] = tested on: Sprague Dawley SIV 50 rat; format: in vivo, male and female Sprague Dawley SIV 50 rat
Excerpt: The high toxicity of the new derivative of colchicine (N-desacetyl-N-adamantoyl-thiocolchicine) has been investigated through the oral way with the male and female Sprague Dawley SIV 50 rat having an average weight of 100 g.
Two experiments have been carried out. In the first one, only the high toxicity of the derivative has been studied; in the second one, the high toxicity of the derivative has been compared with that of colchicine.
The derivative and colchicine have been administered in suspension in propylene glycol through an oesophageal tube at the rate of 2 ml per rat for the first experiment and of 1 ml for the second one.
The animals have been observed for 10 days.

human leucocytes [5] = tested on: human leucocytes
Procedure: Contrary to the previous experiment in which different volumes of a solution of a given concentration have been added, in this experiment the various concentrations were prepared through dilution of a concentrated solution in order to add a same volume of methanol to each culture.

human leucocytes [6] = details: 0.01 μg/ml to 10 μg/ml; up to 30 hours; no PHA
Procedure: (§1) The concentrations of colchicine and of the derivative were prepared through dilution of a concentrated solution in order to add a same volume of methanol to each culture.
The doses were the following:
C1 = 0.01 μg/ml of culture
C2 = 0.1 μg/ml of culture
C3 = 0.5 μg/ml of culture
C4 = 1.0 μg/ml of culture
C5 = 2.5 μg/ml of culture
C6 = 10.0 μg/ml of culture.
(§2) Samples of culture with or without addition of methanol served as references.

leucocytes from rats [7] = details: individual rat, 2 mg/kg oral, 2 mg/kg
Procedure: (§3) These rats had been kept fasting from the evening before.
Two groups of rats served as references.
The first group consisted of rats which were given no substance. The second group consisted of rats which were given a same volume (7.5 ml/kg) of propylene glycol as that received by the treated animals.
(§4) During this experimentation a counting of the leucocytes as well as a leucocytic distribution were made before administration and 6 hours after administration of the substances. Moreover as a cytoxicity index, a measurement of the viability of leucocytes obtained 6 hours after administration was carried out by means of the staining test with Trypan blue.

leucocytes from rats [8] = details: individual rat, 2 mg/kg oral
Procedure: as §3, §4

leucocytes from rats [9] = details: 6 hours after administration, 2 mg/kg oral
Procedure: as §3, §4

in vitro = details: human, leucocytes, % of dead cells (Average of 2 determinations), no PHA
Procedure: as §1
The doses were the following:
C1 = 0.01 μg/ml of culture
C2 = 0.1 μg/ml of culture
C3 = 0.5 μg/ml of culture
C4 = 1.0 μg/ml of culture
C5 = 2.5 μg/ml of culture
C6 = 10.0 μg/ml of culture.
as §2

[10] = 2 mg/kg, three subcutaneous injections, 6 h after urate
[11] = 6 hours after administration, 2 mg/kg

## COc1cc2c(c(OC)c1OC)-c1ccc(OC)c(=O)cc1[C@@H](NC(C)=O)CC2 [Colchicine, colchicine, reference compound]
[1]; 0.004 μg
  inhibition of phagocytosis: 15%
[1]; 0.004 μg, Experimentation III
  % phagocytosis with respect to controls (= 100%): 87.6%
[1]; 0.004 μg, Experimentation IV
  % phagocytosis with respect to controls (= 100%): 81.6%
[1]; 0.04 μg, Experimentation III
  % phagocytosis with respect to controls (= 100%): 65%
[1]; 0.04 μg, Experimentation IV
  % phagocytosis with respect to controls (= 100%): 78.9%
[1]; 0.04 μg, Experimentation V
  % phagocytosis with respect to controls (= 100%): 79.5%
[1]; 0.4 μg, Experimentation III
  % phagocytosis with respect to controls (= 100%): 44.7%
[1]; 0.4 μg, Experimentation IV
  % phagocytosis with respect to controls (= 100%): 54.3%
[1]; 0.4 μg, Experimentation V
  % phagocytosis with respect to controls (= 100%): 54.4%
[1]; 4 μg
  inhibition of phagocytosis: 65%
[1]; 4 μg, Experimentation II
  % phagocytosis with respect to controls (= 100%): 36.9%
[1]; 4 μg, Experimentation III
  % phagocytosis with respect to controls (= 100%): 34.5%
[1]; 4 μg, Experimentation IV
  % phagocytosis with respect to controls (= 100%): 32.2%
[1]; 4 μg, Experimentation V
  % phagocytosis with respect to controls (= 100%): 38.2%
[1]; 5 μg, Experimentation II
  % phagocytosis with respect to controls (= 100%): 30.3%
[1]; 10 μg, Experimentation II
  % phagocytosis with respect to controls (= 100%): 33.7%
[1]; 12.5 μg, Experimentation I
  % phagocytosis with respect to controls (= 100%): 36.5%
[1]; 20 μg, Experimentation II
  % phagocytosis with respect to controls (= 100%): 33.4%
[1]; 30 μg, Experimentation II
  % phagocytosis with respect to controls (= 100%): 36.2%
[1]; 40 μg
  inhibition of phagocytosis: 67%
[1]; 40 μg, Experimentation II
  % phagocytosis with respect to controls (= 100%): 32.0%
[1]; 40 μg, Experimentation III
  % phagocytosis with respect to controls (= 100%): 33.2%
[1]; 40 μg, Experimentation IV
  % phagocytosis with respect to controls (= 100%): 33.8%
[2]; [10]
  % of inhibition of edema: 48%
  Difference in weight between left and right leg (Average ± standard deviation of mean term): 0.152 ± 0.019 g
[2]; colchicine 2 mg/kg, derivative 6 mg/kg
  protection against the oedema produced by crystals of urate (in words): significant protection
Leucocytes from rats [3]; 6 hours after administration, group mean, factor and spread printed on following lines
  cpm / number of lymphocytes, mean: 2.72 × 10^-^2 cpm/number of lymphoc
Leucocytes from rats [3]; 6 hours after administration, individual rat, 2 mg/kg
  Number of lymphocytes/culture: 148,200 lymphocytes/culture and 108,240 lymphocytes/culture
Leucocytes from rats [3]; 6 hours after administration, individual rat, factor × 10^-^2, 2 mg/kg
  cpm / number of lymphocytes (immunity response): 5.03 × 10^-^2 cpm/number of lymphoc and 0.40 × 10^-^2 cpm/number of lymphoc
Leucocytes from rats [3]; before administration, individual rat, 2 mg/kg
  Number of lymphocytes/culture: 103,960 lymphocytes/culture and 163,400 lymphocytes/culture and 156,400 lymphocytes/culture
[4]; 100 mg/kg oral
  rats dead after 24 hours: 1 rat
  rats dead after 48 hours: 5 rats
[4]; 500 mg/kg oral
  rats dead after 24 hours: 5 rats
  rats dead after 48 hours: 1 rat
Human leucocytes [5]; Table 9, 72 hours
  number of leucocytes with increasing amounts (in words): decreases with increasing amounts of colchicine
Human leucocytes [5]; Table 9, C1 = 2.5 μg/ml, control 412,500
  Count of leucocytes after 72 hours: 457,000
Human leucocytes [5]; Table 9, C3 = 10 μg/ml, control 412,500
  Count of leucocytes after 72 hours: 420,000
Human leucocytes [5]; Table 9, C5 = 30 μg/ml, control 412,500
  Count of leucocytes after 72 hours: 397,000
Human leucocytes [5]; Table 9, C6 = 50 μg/ml, control 412,500
  Count of leucocytes after 72 hours: 270,000
Human leucocytes [5]; Table 11, Culture I, C3 = 10 μg/ml
  Count of leucocytes after 72 hours: 550,000
Human leucocytes [5]; Table 11, Culture I, C6 = 50 μg/ml
  Count of leucocytes after 72 hours: 610,000
Human leucocytes [5]; Table 11, Culture II, C1 = 2.5 μg/ml
  Count of leucocytes after 72 hours: 240,000
Human leucocytes [5]; Table 11, Culture II, C3 = 10 μg/ml
  Count of leucocytes after 72 hours: 295,000
Human leucocytes [5]; Table 11, Culture II, C5 = 30 μg/ml
  Count of leucocytes after 72 hours: 205,000
Human leucocytes [5]; Table 11, Culture II, C6 = 50 μg/ml (two values given)
  Count of leucocytes after 72 hours: 225,000 and 330,000
Human leucocytes [5]; Table 11, very approximative
  number of leucocytes in absence or presence of substance (in words): remain substantially the same
Human leucocytes [6]
  cytotoxicity (in words): no cytotoxicity is detectable
Leucocytes from rats [7]; experiment 1, 6 hours after administration
  Leucocytes / mm^3: 9,500 / mm^3 and 7,900 / mm^3 and 7,750 / mm^3
Leucocytes from rats [7]; experiment 1, before administration
  Leucocytes / mm^3: 16,600 / mm^3 and 10,450 / mm^3 and 10,000 / mm^3
Leucocytes from rats [7]; experiment 2, 6 hours after administration
  Leucocytes / mm^3: 7,950 / mm^3 and 6,950 / mm^3 and 8,900 / mm^3
Leucocytes from rats [7]; experiment 2, before administration
  Leucocytes / mm^3: 9,000 / mm^3 and 7,050 / mm^3 and 9,950 / mm^3
Leucocytes from rats [7]; experiment 3, 6 hours after administration
  Leucocytes / mm^3: 9,750 / mm^3 and 13,750 / mm^3
Leucocytes from rats [7]; experiment 3, before administration
  Leucocytes / mm^3: 10,750 / mm^3 and 8,500 / mm^3 and 15,250 / mm^3
Leucocytes from rats [8]; 6 hours after administration
  Basophils: 0
  Eosinophils: 0
Leucocytes from rats [8]; [11]
  Lymphocytes: 92 and 81 and 84
  Neutrophils with non-segmented nucleus: 1 and 3
  Neutrophils with segmented nucleus: 6 and 16 and 17
Leucocytes from rats [8]; before administration
  Basophils: 0
  Monocytes: 2
Leucocytes from rats [8]; before administration, 2 mg/kg
  Lymphocytes: 94 and 83 and 87
Leucocytes from rats [9]
  cytotoxic effect (in words): no cytotoxic effect has been noticed
Leucocytes from rats [9]; individual rat, 2 mg/kg, 360 min
  % of dead cells: 1% and 2% and 0%
In vitro; C1 = 0.01 μg/ml
  cytotoxicity at 6 h: 1%
  cytotoxicity at 30 h: 55%
  cytotoxicity at 48 h: 93%
In vitro; C2 = 0.1 μg/ml
  cytotoxicity at 6 h: 0%
  cytotoxicity at 30 h: 68%
  cytotoxicity at 48 h: 93%
In vitro; C3 = 0.5 μg/ml
  cytotoxicity at 6 h: 2%
  cytotoxicity at 30 h: 54%
  cytotoxicity at 48 h: 91%
In vitro; C4 = 1.0 μg/ml
  cytotoxicity at 6 h: 1%
  cytotoxicity at 30 h: 59%
  cytotoxicity at 48 h: 95%
In vitro; C5 = 2.5 μg/ml
  cytotoxicity at 6 h: 1%
  cytotoxicity at 30 h: 60%
  cytotoxicity at 48 h: 92%
In vitro; C6 = 10.0 μg/ml
  cytotoxicity at 6 h: 1%
  cytotoxicity at 30 h: 46%
  cytotoxicity at 48 h: 92%
